The text below walks through data of patent US7696174B2, “Short bio-active peptides for cellular and immunological modulation” (Helix Biomedix, Inc., priority 2007, dated 2010).

Common to all, as to format: cell-based
For assay [1], the system named is PAM 212 murine epidermal keratinocyte. Put plainly: Cell proliferation assay, PAM 212 murine epidermal keratinocytes. The settings on record: for cell proliferation as a percent of control cell proliferation: control = cells treated with PBS only; for cell proliferation activity (in words): epidermal keratinocytes. On the procedure:
To examine this question, an overlapping set of peptide fragments of HB-107 was generated using standard solid phase peptide chemistry. These peptides were then assayed for cell proliferation activity at concentrations of 0.22, 2.15, 21.5 and 46.4 μg/mL.
The cell proliferation assays proceeded from the following experimental protocol:
Cell Proliferation Assay Using a Mouse Keratinocyte Cell Line.
OBJECTIVE: To determine the anti-proliferative or cytotoxic potential of a test article when applied to epidermal keratinocytes in culture.
TEST SYSTEM: Either the murine keratinocyte cell line PAM212 or primary Normal Human Epidermal Keratinocytes (NHEK, from Clonetics) are preferred models, although other cells may be used.
Keratinocytes are examined microscopically daily. As the culture becomes 50-75% confluent, the media in the plate is aspirated and 0.25% trypsin/EDTA is added (0.05% trypsin for human cells). When the cells become rounded, the trypsin is neutralized by addition of an equal volume of DMEM or KBM supplemented with approximately 10% bovine serum or by using trypsin neutralizing solution (TNS, from Clonetics). Cells are then centrifuged and the pellet is resuspended in 1 ml of DMEM-1 or KBM. A hemacytometer is used to count the cell suspension and the total number of cells/mL is adjusted to 1.5-2.5×10^4 cells/mL with DMEM-1 or KBM. Cells are then plated in 96-well plates at a concentration of 3.0-5.0×10^3 cells/well by adding 200 μL of the cell suspension to each well. Typically, the central 60 wells are used and the outer wells are filled with DMEM or PBS to minimize evaporation effects.
A stock solution of the test article is prepared using DMEM-1 or KBM, and all other dilutions are henceforth prepared from this solution. Typically, each dilution is filtered through an 0.2-μm filter before application to the cell culture. A 1.0% (w/v or v/v) solution or suspension is prepared, and 10-fold or 3-fold serial dilutions are made in culture medium.
The cells are examined 18-24 hours after plating to ensure cell attachment and division, and then 100 μL of the media is aspirated, leaving behind 100 μL in each well. Then 100 μL of a 2× concentration of each test article dilution is added to the replicate wells. For the negative control, 100 μL of the vehicle media (DMEM-1 or KBM) is added to the control wells. The microplate is then incubated at 37 degrees C. and 5.0% CO2 for 48-72 hours after dosing, and cells are allowed to proliferate undisturbed. Following this 48-72 hour exposure, all media is aspirated and proliferation is assessed by one of the below methods.
Option A: neutral red uptake. After exposure and aspiration of media, 200 μL of neutral red media is immediately added to each well. The microplate is returned to the incubator for an additional three hours. Following this dye uptake period, the microplate is removed from the incubator and gently inverted, and the neutral red media is decanted into a collection pan. The cells are then fixed with fixing solution for approximately one minute. The fixing solution is decanted off, and the microplate is washed gently three times with washing solution. The washing solution is decanted, and 200 μL of lysing solution is added. After at least 15 minutes, the contents of each well are re-pipetted to ensure even color distribution in each well, and an aliquot is read on the spectrophotometer as detailed below.
Option B: MTT conversion assay. After exposure and aspiration of media, 200 μL of MTT assay media is immediately added to each well. […] The microplate is returned to the incubator for an additional three hours. Following this dye uptake period, the microplate is removed from the incubator and gently inverted, and the MTT media is decanted into a collection pan. The cells are then washed gently three times with washing solution. The washing solution is decanted, and 200 μL of lysing solution is added. […]

Assay [2] concerns human epidermal keratinocyte. Kind of assay: Keratinocyte cell migration assay (tissue culture scratch test). The settings on record: for cell migration activity (in words): scratch test. From the text: Cell proliferation alone is not sufficient to aid in wound healing. Upon sustaining an injury, cells bordering the wound proliferate; the migration of such newly formed cells to close the injury (or chronic lesion of older, dysfunctional tissue) is of equal importance. To address this issue, HB-107 and peptide fragments thereof were examined using a keratinocyte cell migration assay based on a simple tissue culture scratch test. […] The protocol for this assay is standard and has been described by Shanley et al. (2004, Invest. Ophthalmol. Vis. Sci. 45:1088-1094), the article of which is herein incorporated by reference in its entirety.

For assay [3], the system named is IL6 expression in epithelial cells. Put plainly: Repression of IL6 expression in resting epithelial cells. Particulars: for % Change in IL6 expression / Change in IL6 versus PBS control: 20 μg/mL peptide. From the text: The protocol for this assay is standard and described by Murakami et al. (2004, J. Immunol. 172:[…]), the article of which is incorporated herein by reference in its entirety.

[4] abbreviates: 24 hr after addition of 20 μg/mL peptide.
Where [5] appears, read: 48 hr after addition of 20 μg/mL peptide.

“Also recorded” adds a separate entry of the source. Like-named read-outs stand apart in the source and are kept apart here.

Turning to “EKMGRNIRN (listed as Hyalophora cecropia) [HB-1059, fragment of HB-107]”, the “cell proliferation as a percent of control cell proliferation” value (shortened to “cell proliferation as a percent”) was determined as 95% in assay [1] (0.22 μg/mL peptide), 128% in assay [1] (2.15 μg/mL peptide), 162% in assay [1] (21.5 μg/mL peptide) and 186% in assay [1] (46.4 μg/mL peptide). In addition, the “cell proliferation activity (in words)” value in assay [1] (listed as SEQ ID NO:2) is on record as “strongest proliferative activity; also recorded: can induce cell proliferation”.

“GRNIRN (listed as Hyalophora cecropia) [HB-1062, fragment of HB-107]”: the entries for the “percent closure of the scratch compared to initial width” value (shortened to “percent closure of the scratch”) in assay [2] (6 hr exposure to peptide) and in assay [2] (10 hr exposure to peptide) were 0% and 24%, respectively. Moreover, in assay [2], the “cell migration activity (in words)” value was “no migratory activity”.

As for “KEKVFLKIE (listed as Hyalophora cecropia) [HB-1076, fragment of HB-107]”, the “IL6 reduction / anti-inflammatory activity in resting cells (in words)” value in assay [3] is “decrease the level of IL6 expression to the same degree as the HB-107 parent peptide”. Besides, in assay [3] (setting [4]), the “amount of IL6, Average” value was determined as 266.7 pg/mL; the “amount of IL6, Well 1” value is given as 278.32 pg/mL; the “amount of IL6, Well 2” value was found to be 255.08 pg/mL. For the same substance, in assay [3] (24 hr), the “% Change in IL6 expression” value is −17.60% and the “Change in IL6 versus PBS control” value is listed as −56.8. Also, in assay [3] (setting [5]), the “amount of IL6, Average” value worked out at 727.59 pg/mL; the “amount of IL6, Well 1” value was 726.73 pg/mL; the “amount of IL6, Well 2” value is recorded as 728.45 pg/mL. Besides, in assay [3] (48 hr), the “% Change in IL6 expression” value is −25.40% and the “Change in IL6 versus PBS control” value is −247.445. In assay [3] (listed as SEQ ID NO:8), the “IL6 reduction / anti-inflammatory activity in resting cells (in words)” value is recorded as “having anti-inflammatory activity”.

In the case of “KIEKMG (listed as Hyalophora cecropia) [HB-1072, fragment of HB-107]”, the “percent closure of the scratch” value in assay [2] (6 hr exposure to peptide) is 55%; in assay [2] (10 hr exposure to peptide) it was 77%. The “cell migration activity (in words)” value in assay [2] was “just as capable as HB-107 in inducing cell migration; also recorded: capable of increasing the migration of cells in a manner similar to that of the parent HB-107 peptide”; in assay [2] (listed as SEQ ID NO:6) it was “can induce cell proliferation and migration”. Further, the “cell proliferation as a percent” value in assay [1] (0.22 μg/mL peptide) is given as 98%; in assay [1] (2.15 μg/mL peptide), 107%; in assay [1] (21.5 μg/mL peptide) it was 185%; in assay [1] (46.4 μg/mL peptide), 237%. Further, the “cell proliferation activity (in words)” value is given as “significant increases in cell proliferation compared to induction by HB-107; also recorded: significant increase in the proliferation of epidermal keratinocytes at low concentrations” in assay [1], “strongest proliferative activity” in assay [1] (listed as 6) and “can induce cell proliferation” in assay [1] (listed as SEQ ID NO:6).

For “KIEKMGRNIRN (listed as Hyalophora cecropia) [HB-1057, fragment of HB-107]”, the “cell proliferation as a percent” value is on record as 121% in assay [1] (0.22 μg/mL peptide), 118% in assay [1] (2.15 μg/mL peptide), 171% in assay [1] (21.5 μg/mL peptide) and 167% in assay [1] (46.4 μg/mL peptide). In addition, the “cell proliferation activity (in words)” value in assay [1] (listed as 9) is “strongest proliferative activity”; in assay [1] (listed as SEQ ID NO:9) it was “can induce cell proliferation”.

On to “KMGRNIRN (listed as Hyalophora cecropia) [HB-1060, fragment of HB-107]”, for which the “cell proliferation as a percent” value in assay [1] (0.22 μg/mL peptide) was found to be 57%; in assay [1] (2.15 μg/mL peptide), 52%; in assay [1] (21.5 μg/mL peptide), 90%; in assay [1] (46.4 μg/mL peptide), 83%.

As to “LKIEKMGRNIRN (listed as Hyalophora cecropia) [HB-1056, fragment of HB-107]”, the “cell proliferation as a percent” value in assay [1] (0.22 μg/mL peptide) is on record as 48%; in assay [1] (2.15 μg/mL peptide) it was 39%; in assay [1] (21.5 μg/mL peptide), 64%; in assay [1] (46.4 μg/mL peptide), 97%.

With “MGRNIRN (listed as Hyalophora cecropia) [HB-1061, fragment of HB-107]”, the “percent closure of the scratch” value in assay [2] (6 hr exposure to peptide) is given as 44%; in assay [2] (10 hr exposure to peptide) it was 67%. Also, the “cell migration activity (in words)” value in assay [2] was “just as capable as HB-107 in inducing cell migration; also recorded: capable of increasing the migration of cells in a manner similar to that of the parent HB-107 peptide”; in assay [2] (listed as SEQ ID NO:3) it was “can induce cell proliferation and migration”. The “cell proliferation as a percent” value in assay [1] (0.22 μg/mL peptide) stood at 122%; in assay [1] (2.15 μg/mL peptide), 156%; in assay [1] (21.5 μg/mL peptide), 163%; in assay [1] (46.4 μg/mL peptide), 241%. Besides, the results for the “cell proliferation activity (in words)” value in assay [1], in assay [1] (listed as 3) and in assay [1] (listed as SEQ ID NO:3) were “significant increases in cell proliferation compared to induction by HB-107; also recorded: significant increase in the proliferation of epidermal keratinocytes at low concentrations”, “strongest proliferative activity” and “can induce cell proliferation”, respectively.

With “MPKEKVFLKIEKMG (listed as Hyalophora cecropia) [HB-912, fragment of HB-107]”, the “cell proliferation as a percent” value in assay [1] (0.22 μg/mL peptide) is 100%; in assay [1] (2.15 μg/mL peptide) it was 84%; in assay [1] (21.5 μg/mL peptide) it was 125%; in assay [1] (46.4 μg/mL peptide), 137%. Also, the “cell proliferation activity (in words)” value in assay [1] is recorded as “can induce cell proliferation”.

For “VFLKIEK (listed as Hyalophora cecropia) [HB-1074, fragment of HB-107]”, the “cell proliferation as a percent” value in assay [1] (0.22 μg/mL peptide) was 97%; in assay [1] (2.15 μg/mL peptide), 93%; in assay [1] (21.5 μg/mL peptide) it was 120%; in assay [1] (46.4 μg/mL peptide) it was 149%. Further, the “cell proliferation activity (in words)” value in assay [1] is on record as “can induce cell proliferation”.

As to “VFLKIEKMG (listed as Hyalophora cecropia) [HB-1071, fragment of HB-107]”, the “cell proliferation as a percent” value in assay [1] (0.22 μg/mL peptide) was 106%; in assay [1] (2.15 μg/mL peptide), 127%; in assay [1] (21.5 μg/mL peptide), 188%; in assay [1] (46.4 μg/mL peptide) it was 155%. In addition, the figures for the “cell proliferation activity (in words)” value in assay [1] (listed as 5) and in assay [1] (listed as SEQ ID NO:5) were “strongest proliferative activity” and “can induce cell proliferation”, respectively.
